Data as given in patent publication US4749712A, “Antiinflammatory and/or analgesic 5-alkylthiophenes” (E. I. Du Pont de Nemours and Company, priority 1984, dated 1988).
Like-named read-outs stand apart in the source and are kept apart here.

What was measured:
[1] = test system: adjuvant-induced arthritis in rats; experiment: Established Adjuvant-Induced Arthritis in Rats; assay type: in vivo, rat (male Charles River Lewis); conditions: for ED50: 24 h, read-out: Adjuvant Arthritis ED50 (effective dose for 50% decrease from control paw volume)
[2] = test system: phenylquinone writhing in mice; experiment: Phenylquinone Writhing Test (analgesic activity); assay type: in vivo, mouse (female white mice); conditions: read-out: Phenylquinone Writhing (PQW) ED50 (effective analgesic dose for 50% of the mice)
Method: Phenylquinone Writhing Test
A test compound suspended in 1% methylcellulose was given orally to fasted (17-21 hours) female white mice, 5-20 animals per double blind test. Aqueous (0.01% phenyl-p-benzoquinone) phenylquinone, 0.20 ml per mouse, was injected intraperitoneally 6 minutes before observations were begun.

[3] = rat, oral gavage, 7 daily doses, paw volume one day after last dose
[4] = mouse, oral, phenylquinone i.p. 6 minutes before 10 minutes observation

| Structure (SMILES) | ED50 [1, 3] [mg/kg] | ED50 [2, 4] [mg/kg] | ED50 ([1]; Rattus norvegicus, po) [mg/kg] | ED50 ([2]; Mus musculus, po) [mg/kg] | percent reduction in paw volume at the indicated dose ([1]; rat, oral gavage, 7 daily doses, at 45 mg/kg) [%] |
| --- | --- | --- | --- | --- | --- |
| COc1ccc(-c2cc(C(C)(C)C)sc2-c2ccc(OC)cc2)cc1 [Example 4, 5-(1,1-Dimethylethyl)-2,3-bis(4-methoxyphenyl)thiophene] | 36 | 1.4 |  |  |  |
| COc1ccc2c(c1)c(CC(=O)O)c(C)n2C(=O)c1ccc(Cl)cc1 [Indomethacin, reference compound] |  |  | 0.3 | 0.35 |  |
| CCC(C)c1cc(-c2ccc(OC)cc2)c(-c2ccc(OC)cc2)s1 (stereo not drawn) [Example 2, 5-(1-Methylpropyl)-2,3-bis(4-methoxyphenyl)thiophene] | 29 | 5.5 |  |  |  |
| CCCCC1C(=O)N(c2ccccc2)N(c2ccccc2)C1=O [Phenylbutazone, reference compound] | 10 | 80 |  |  |  |
| COc1ccc(-c2cc(C)sc2-c2ccc(OC)cc2)cc1 [Example 1, 5-Methyl-2,3-bis(4-methoxyphenyl)thiophene] | 60 | 78 |  |  |  |
| CC(=O)Oc1ccccc1C(=O)O [Aspirin, reference compound] |  |  | 305 |  |  |
| COc1ccc(-c2cc(C3CCCCC3)sc2-c2ccc(OC)cc2)cc1 [Example 3, 5-Cyclohexyl-2,3-bis(4-methoxyphenyl)thiophene] |  | 47 |  |  | 34 |
| CC(C)Cc1ccc(C(C)C(=O)O)cc1 (stereo not drawn) [Ibuprofen, reference compound] | 100 | 10 |  |  |  |
